The values that follow come from US20130252923A1, “SKIN-BEAUTIFYING AGENT” (MEGMILK SNOW BRAND CO., LTD., priority 2007, published 2013).

Assay [1] concerns hairless mice (Hos: HR-1). In words: TEWL of the skin (Tewameter) after oral administration, animal test. Format: in vivo. Particulars: three weeks, positive control. The procedure:
(§1) A skin-beautifying effect of milk-derived phospholipid was evaluated using the compositions containing milk-derived phospholipid obtained in Examples 1 and 2. In experiments 13-week-old hairless mice (Hos: HR-1) were used. […] A water content and TEWL of the skin of the tail and the base of the tail of the mice were measured at the initiation of the test and the completion of the test. Values obtained at the completion of the test were calculated by setting each value obtained at the initiation of the test as 100, and the obtained values were provided as a rate of increase. A water content of the skin and TEWL were measured with a Corneometer and a Tewameter manufactured by Courage +Khazaka electronic GmbH, respectively.

Assay [2] concerns hairless mice (Hos: HR-1). In words: Water content of the skin (Corneometer) after oral administration, animal test. The following applies: three weeks, positive control. Format: in vivo. The method, then:
as §1

Where [3] appears, read: 3 mg sphingomyelin per kg body weight, oral once daily, value at initiation = 100.

Consider sphingomyelin, for which the “Rate of TEWL increase” value in assay [1] (setting [3]) turned out to be 86%. Further, in assay [1] (3 mg/kg sphingomyelin solely), the “TEWL, times that of group A” value came out at 0.85 times. In addition, the “Rate of water content increase” value in assay [2] (setting [3]) is given as 124%. Moreover, the “water content of the skin, times as much as the water content of the skin of group A” value in assay [2] (3 mg/kg sphingomyelin solely) was 1.25 times.
